Structures can show the parent of a compound that is named as a salt. Where two headings read alike, the source gives them in different places.
Tests used:
[1] = tested on: T4 lymphocytes (CEM cell line); assay: toxicity control: survival of uninfected T4 lymphocytes (CEM cell line) treated with compound (growth inhibition); type: cell-based; details: for IC50: read-out: IC50 (Molar)
Protocol: (§1) 1. Candidate agent is dissolved in dimethyl sulfoxide (unless otherwise instructed) and then diluted 1:100 in cell culture medium before preparing serial half-log10 dilutions which are then to 96-well microfilter plates. T4 lymphocytes (CEM cell line) are added, and after a brief interval HIV-1 is added to all wells, resulting in a 1:200 final dilution […]. Uninfected cells with the compound serve as a toxicity control, and infected and uninfected cells without the compound serve as basic controls.
(§2) 2. Cultures are incubated at 37° C. in a 5% carbon dioxide atmosphere for 6 days.
(§3) 3. The tetrazolium salt, XTT, is added to all wells, and cultures are incubated to allow formazan color development by viable cells.
(§4) 4. Individual wells are analyzed spectrophotometrically to quantitate formazan production, and in addition are viewed microscopically for detection of viable cells and confirmation of protective activity.
(§5) 5. Drug-tested virus-infected cells are compared with drug-treated noninfected cells and with other appropriate controls (untreated infected and untreated noninfected cells, drug-containing wells without cells, etc.) on the same plate.
(§6) FIGS. 1 to 6 display a plot of the log10 of the concentrations (as μg/mL or molar as shown) of the aroylaniline compounds, Compounds 1, 3, 13, 14, 29 and 32, against the measured test values expressed as a percentage of the uninfected, untreated control values. The solid line depicts the percentage of surviving HIV-infected cells treated with sample (at the indicated concentration) relative to uninfected, untreated controls. Thus, the solid line expresses the anti-HIV activity of the compound. The dashed line depicts the percentage of surviving uninfected cells treated with the compound relative to the same uninfected, untreated controls. Thus, the dashed line expresses the growth inhibitory properties of the compound. The viral cytopathic effect […] is indicated by a dotted reference line. […] Survival values of this parameter less than 50% are considered acceptable in the current protocol. Approximate values for 50% effective concentration (EC50) have been calculated for each test and are set forth for these Compounds in Tables 2-7, respectively.

HIV-1 = assay: in vitro anti-HIV screening (NCI XTT soluble-formazan assay, protection of HIV-1-infected CEM T4 lymphocytes from cytolysis); type: cell-based; details: for EC50: HIV-1-infected CEM cells, 6 days, approximate values, read-out: EC50 (Molar), 50% effective concentration; for Conclusion: NCI anti-HIV screen
Excerpt: The aroylaniline compounds of the present invention were subjected to in vitro screening to determine their anti-HIV activity.
The National Cancer Institute's procedure for testing for agents active against Human Immunodeficiency Virus (HIV) (Weislow, O. W. et al., "New soluble-formazan assay for HIV-1 cytopathic effects: application to high-flux screening of synthetic and natural products for AIDS-antiviral activity," J. Natl Cancer Inst., 81, 577-586 (1989)) is designed to detect agents acting at any stage of the virus reproductive cycle. The assay includes the killing of T4 lymphocytes by HIV. Pursuant to the test, small amounts of HIV are added to cells, and a complete cycle of virus reproduction is necessary to obtain the required cell killing. Agents that interact with virions, cells, or virus gene-products to interfere with viral activities will protect cells from cytolysis. The system is thus designed to detect anti-HIV activity. However, compounds that are chemically labile or are rapidly metabolized in the culture conditions may not show activity in this screen. All tests are compared with at least one positive (e.g., AZT-treated) control done at the same time under identical conditions.
as §1, §2, §3, §4, §5
6. Data are reviewed in comparison with other tests done at the same time and a determination about activity is made.
The aroylaniline compounds of the present invention were tested for anti-HIV activity according to the above procedure. FIGS. 1-6 represent test results of the aroylaniline compounds of Compounds 1, 3, 13, 14, 29 and 32.
as §6

[2] = Homo sapiens, CCRF-CEM, read-out: Percent of Control, Uninfected

N,N'-Bis(4-amino-2-sulfobenzoyl)-4,4'-diaminostilbene-2,2-disulfonic acid tetrasodium salt [Compound 32]
Percent of Control, Uninfected ([1]; 2.00 × 10^-4 Molar): 35.45% | Percent of Control, Uninfected ([1]; 2.00 × 10^-5 Molar): 98.84% | Percent of Control, Uninfected ([1]; 2.01 × 10^-6 Molar): 98.97% | Percent of Control, Uninfected ([1]; 2.01 × 10^-7 Molar): 82.40% | Percent of Control, Uninfected ([1]; 6.33 × 10^-5 Molar): 95.50% | Percent of Control, Uninfected ([1]; 6.34 × 10^-6 Molar): 94.34% | Percent of Control, Uninfected ([1]; 6.35 × 10^-7 Molar): 95.11% | Percent of Control, Uninfected ([1]; 6.36 × 10^-8 Molar): 83.94% | IC50 ([1]; uninfected CEM cells, 6 days): 151 µM | Percent of Control, Infected (HIV-1; 2.00 × 10^-4 Molar): 61.85% | Percent of Protection (HIV-1; 2.00 × 10^-4 Molar, 200 µM): 52.90% | Percent of Control, Infected (HIV-1; 2.00 × 10^-5 Molar): 112.68% | Percent of Protection (HIV-1; 2.00 × 10^-5 Molar, 20 µM): 115.65% | Percent of Control, Infected (HIV-1; 2.01 × 10^-6 Molar): 97.97% | Percent of Protection (HIV-1; 2.01 × 10^-6 Molar, 2.01 µM): 97.49% | Percent of Control, Infected (HIV-1; 2.01 × 10^-7 Molar): 14.10% | Percent of Protection (HIV-1; 2.01 × 10^-7 Molar, 0.201 µM): -6.05% | Percent of Control, Infected (HIV-1; 6.33 × 10^-5 Molar): 115.38% | Percent of Protection (HIV-1; 6.33 × 10^-5 Molar, 63.3 µM): 118.99% | Percent of Control, Infected (HIV-1; 6.34 × 10^-6 Molar): 105.65% | Percent of Protection (HIV-1; 6.34 × 10^-6 Molar, 6.34 µM): 106.98% | Percent of Control, Infected (HIV-1; 6.35 × 10^-7 Molar): 26.85% | Percent of Protection (HIV-1; 6.35 × 10^-7 Molar, 0.635 µM): 9.69% | Percent of Control, Infected (HIV-1; 6.36 × 10^-8 Molar): 17.12% | Percent of Protection (HIV-1; 6.36 × 10^-8 Molar, 0.0636 µM): -2.32% | EC50 (HIV-1): 1.08 µM | Conclusion (HIV-1): CONFIRMED ACTIVE

O=C(O)CCSCc1cc(C(=O)Nc2ccc(C=Cc3ccc(NC(=O)c4cc(CSCCC(=O)O)c5cccnc5c4O)cc3S(=O)(=O)O)c(S(=O)(=O)O)c2)c(O)c2ncccc12 [Compound 13, 4,4'-di[5-(2-carboxyethylthiomethyl)-8-hydroxy-7-quinolinecarboxyamido]stilbene-2,2'-disulfonic acid tetrasodium salt]
IC50 ([1]; Homo sapiens, CCRF-CEM, 144 h): 29 µM | activity at 0.0635 µM [1, 2]: 86.4% | activity at 0.2 µM [1, 2]: 90.5% | activity at 0.634 µM [1, 2]: 92.2% | activity at 2 µM [1, 2]: 111% | activity at 6.33 µM [1, 2]: 118% | activity at 20 µM [1, 2]: 73.7% | activity at 63.2 µM [1, 2]: 0.37% | activity at 200 µM [1, 2]: 2.05% | EC50 (HIV-1; Human immunodeficiency virus 1, CCRF-CEM, 144 h): 1.05 µM | inhibition at 63.2 µM (HIV-1; Human immunodeficiency virus 1, CCRF-CEM, read-out: Percent of Protection): 29.4% | inhibition at 200 µM (HIV-1; Human immunodeficiency virus 1, CCRF-CEM, 2.00 × 10^-4 Molar, read-out: Percent of Protection): -28% | inhibition at 20 µM (HIV-1; Human immunodeficiency virus 1, CCRF-CEM, 2.00 × 10^-5 Molar, read-out: Percent of Protection): 67.5% | inhibition at 2 µM (HIV-1; Human immunodeficiency virus 1, CCRF-CEM, 2.00 × 10^-6 Molar, read-out: Percent of Protection): 84.4% | inhibition at 0.2 µM (HIV-1; Human immunodeficiency virus 1, CCRF-CEM, 2.00 × 10^-7 Molar, read-out: Percent of Protection): -17.9% | inhibition at 6.33 µM (HIV-1; Human immunodeficiency virus 1, CCRF-CEM, 6.33 × 10^-6 Molar, read-out: Percent of Protection): 134% | inhibition at 0.634 µM (HIV-1; Human immunodeficiency virus 1, CCRF-CEM, 6.34 × 10^-7 Molar, read-out: Percent of Protection): 24.6% | inhibition at 0.0635 µM (HIV-1; Human immunodeficiency virus 1, CCRF-CEM, 6.35 × 10^-8 Molar, read-out: Percent of Protection): 15.6% | activity at 63.2 µM (HIV-1; Human immunodeficiency virus 1, CEM-T4, read-out: Percent of Control, Infected): 1.63% | activity at 200 µM (HIV-1; Human immunodeficiency virus 1, CEM-T4, 2.00 × 10^-4 Molar, read-out: Percent of Control, Infected): 2.7% | activity at 20 µM (HIV-1; Human immunodeficiency virus 1, CEM-T4, 2.00 × 10^-5 Molar, read-out: Percent of Control, Infected): 75.3% | activity at 2 µM (HIV-1; Human immunodeficiency virus 1, CEM-T4, 2.00 × 10^-6 Molar, read-out: Percent of Control, Infected): 88.1% | activity at 0.2 µM (HIV-1; Human immunodeficiency virus 1, CEM-T4, 2.00 × 10^-7 Molar, read-out: Percent of Control, Infected): 10.4% | activity at 6.33 µM (HIV-1; Human immunodeficiency virus 1, CEM-T4, 6.33 × 10^-6 Molar, read-out: Percent of Control, Infected): 126% | activity at 0.634 µM (HIV-1; Human immunodeficiency virus 1, CEM-T4, 6.34 × 10^-7 Molar, read-out: Percent of Control, Infected): 42.7% | activity at 0.0635 µM (HIV-1; Human immunodeficiency virus 1, CEM-T4, 6.35 × 10^-8 Molar, read-out: Percent of Control, Infected): 35.8% | TI50 (IC/EC), therapeutic index (HIV-1; IC50/EC50): 2.78 × 10^+1 | Conclusion (HIV-1): CONFIRMED ACTIVE
